Results reported in PubChem BioAssay AID256 (DTP/NCI, 2004).
Inconclusive results and toxic doses are left out. The calls were made as follows: active = survival T/C of 150% or more; inactive = T/C below 125% in these data.

Tested on: CD2F1 mice, L1210 leukemia ip, survival T/C
Test: NCI In Vivo Anticancer Drug Screen. Data for tumor model L1210 Leukemia (intraperitoneal) in CD2F1 (CDF1) mice
Details: endpoint: mean survival time, higher = longer survival
In short: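 Tumor-bearing mice (transplanted tumor) were split into treated and vehicle control groups, and the measured endpoint of each treated group was divided by that of its vehicle controls.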

[1] = dose: 100.0 mg/kg/injection, schedule: Q01DX001 (ip), vehicle: saline
[2] = dose: 200.0 mg/kg/injection, schedule: Q01DX001 (ip), vehicle: saline
[3] = dose: 400.0 mg/kg/injection, schedule: Q01DX001 (ip), vehicle: saline
[4] = dose: 100.0 mg/kg/injection, schedule: Q04DX002 (ip), vehicle: saline with Tween-80
[5] = dose: 200.0 mg/kg/injection, schedule: Q04DX002 (ip), vehicle: saline with Tween-80
[6] = dose: 100.0 mg/kg/injection, schedule: Q01DX009 (ip), vehicle: saline with Tween-80
[7] = dose: 200.0 mg/kg/injection, schedule: Q01DX009 (ip), vehicle: saline with Tween-80

Measured: T/C

O=C(O)C(=O)Cc1ccc2c(c1)OCO2
inactive: [1] 98 % of control | [2] 104 % of control | [3] 98 % of control

CCN(CC)C(=S)SCCSC(=S)N(CC)CC
inactive: [4] 92 % of control | [5] 106 % of control | dose: 400.0 mg/kg/injection, schedule: Q04DX002 (ip), vehicle: saline with Tween-80 89 % of control

Fc1cc(F)c(F)c(-c2c(F)c(F)cc(F)c2F)c1F
inactive: dose: 50.0 mg/kg/injection, schedule: Q01DX009 (ip), vehicle: saline with Tween-80 103 % of control | [6] 103 % of control | [7] 96 % of control

CC(=O)N(C)c1ccc(C)cc1C
inactive: [6] 93 % of control | [7] 96 % of control | dose: 400.0 mg/kg/injection, schedule: Q01DX009 (ip), vehicle: saline with Tween-80 98 % of control

CCCCCCCCCCCCCCCC1=NC(C)(C)CN1C(C)C
inactive: dose: 1.25 mg/kg/injection, schedule: Q01DX009 (ip), vehicle: saline with Tween-80 95 % of control | dose: 2.5 mg/kg/injection, schedule: Q01DX009 (ip), vehicle: saline with Tween-80 102 % of control | dose: 5.0 mg/kg/injection, schedule: Q01DX009 (ip), vehicle: saline with Tween-80 98 % of control

NC(=O)C1(C(N)=O)CCCCC1
inactive: dose: 50.0 mg/kg/injection, schedule: Q04DX002 (ip), vehicle: saline with Tween-80 100 % of control | [4] 112 % of control | [5] 100 % of control

O=C(N1CCC2(CC1)SSC1(CCN(C(=O)C(F)(F)F)CC1)S2)C(F)(F)F
inactive: dose: 100.0 mg/kg/injection, schedule: Q04DX003 (ip), vehicle: saline with Tween-80 88 % of control | dose: 200.0 mg/kg/injection, schedule: Q04DX003 (ip), vehicle: saline with Tween-80 90 % of control | dose: 400.0 mg/kg/injection, schedule: Q04DX003 (ip), vehicle: saline with Tween-80 90 % of control

O=C(O)COc1ccc(NC(=O)COc2ccccc2)cc1
inactive: dose: 25.0 mg/kg/injection, schedule: Q01DX001 (ip), vehicle: saline with Tween-80 100 % of control | dose: 50.0 mg/kg/injection, schedule: Q01DX001 (ip), vehicle: saline with Tween-80 97 % of control | dose: 100.0 mg/kg/injection, schedule: Q01DX001 (ip), vehicle: saline with Tween-80 100 % of control

COc1cc2ccc3c(c2cc1OC)C(=O)CNC3C (stereo not drawn)
inactive: dose: 3.13 mg/kg/injection, schedule: Q01DX009 (ip), vehicle: saline 105 % of control | dose: 6.25 mg/kg/injection, schedule: Q01DX009 (ip), vehicle: saline 98 % of control | dose: 12.5 mg/kg/injection, schedule: Q01DX009 (ip), vehicle: saline 104 % of control

COc1ccc(CC(=O)Nc2ccc(OC)c(OC)c2)cc1OC
inactive: dose: 12.5 mg/kg/injection, schedule: Q01DX009 (ip), vehicle: water 96 % of control | dose: 25.0 mg/kg/injection, schedule: Q01DX009 (ip), vehicle: water 98 % of control | dose: 50.0 mg/kg/injection, schedule: Q01DX009 (ip), vehicle: water 96 % of control | dose: 100.0 mg/kg/injection, schedule: Q01DX009 (ip), vehicle: water 95 % of control | dose: 200.0 mg/kg/injection, schedule: Q01DX009 (ip), vehicle: water 96 % of control

O=C(CCc1ccc(O)cc1)c1c(O)cc(O)cc1OC1OC(CO)C(O)C(O)C1O (stereo not drawn)
inactive: [1] 102 % of control | [2] 98 % of control | [3] 104 % of control

CC(C)(C)C1C=Nn2c(=O)n(-c3ccccc3)c(=O)n21 (stereo not drawn)
inactive: dose: 12.5 mg/kg/injection, schedule: Q01DX009 (ip), vehicle: other 100 % of control | dose: 25.0 mg/kg/injection, schedule: Q01DX009 (ip), vehicle: other 94 % of control | dose: 50.0 mg/kg/injection, schedule: Q01DX009 (ip), vehicle: other 101 % of control | dose: 100.0 mg/kg/injection, schedule: Q01DX009 (ip), vehicle: other 100 % of control | dose: 200.0 mg/kg/injection, schedule: Q01DX009 (ip), vehicle: other 99 % of control

CC1CCCCCC(=O)c2c(O)cc(O)cc2CC(=O)O1 (stereo not drawn)
inactive: dose: 100.0 mg/kg/injection, schedule: Q01DX001 (ip), vehicle: other 95 % of control | dose: 200.0 mg/kg/injection, schedule: Q01DX001 (ip), vehicle: other 118 % of control | dose: 400.0 mg/kg/injection, schedule: Q01DX001 (ip), vehicle: other 100 % of control
